Data on seven molecules can be found in article PMC12693182, “Synthesis and QSAR Studies of Claramine Derivatives, a New Class of Broad-Spectrum Antimicrobial Agents” (Molecules, 2025).

In brackets after ≈: the same amount, converted by molar mass. Like-named read-outs stand apart in the source and are kept apart here.

Assay [1] deals with S. aureus 340. Description: MIC, broth microdilution. The class given is cell-based, Staphylococcus aureus. As to conditions: for MIC: Staphylococcus aureus, 340, 24 h. How it is done:
(§1) Antimicrobial activity of the compounds was studied by determination of minimal inhibitory concentrations (MIC) according to the NCCLS guidelines M7-A2 using the microbroth dilution methods. The bacteria strains were grown on trypticase soy agar (Becton Dickinson) at 37 °C for 24 h. Inocula were prepared in TCE (tryptone 0.1%, […], wt/vol) by ajusting the turbidity at 623 nm to obtain 1–3 10^5 CFU/mL.
(§2) Antimicrobial activities of the compounds were determined by using a broth microdilution method performed in sterile 96-well microplates. All compounds were solubilized in water at a concentration of 10 mM and were transferred to each microplate well in order to obtain a two-fold serial dilution in 100 µL of broth and 100 µL of inoculum containing 2–6 10^5 CFU of each bacterium were added to each well. Some wells were reserved for positive controls and inoculum viability.
Background: Broth dilution looks for growth in wells or tubes with falling amounts of substance.

Assay [2] deals with S. aureus ATCC 25923. Description: MIC, broth microdilution. In kind it is cell-based, Staphylococcus aureus. As to conditions: Staphylococcus aureus, ATCC25923, 24 h, ATCC strain. Here is the method: as §1, §2
Assay [3] deals with Chinese hamster Ovary cells (CHO-K1). Nature of the assay: Cytotoxicity assay (WST-1 / Neutral Red). In kind it is cell-based. As to conditions: 24-h incubation; for IC50: Cricetulus griseus, 24 h. How it is done: The cytotoxic activities of compounds were assessed on Chinese hamster Ovary cells (CHO-K1) provided from ATCC-LGC Standards Sarl (Molsheim, France). Cells were maintained in Mc Coy’s 5A (CHO) medium supplemented with 10% bovine calf serum, 2 mM glutamine, and 100 U mL^−1/10 µg mL^−1 penicillin/streptomycin mixtures. For the cytotoxicity experiments, they were seeded in 96-well plates and incubated at 37 °C in humidified atmosphere containing 5% CO2 overnight, then concentrations of compounds were incorporated in triplicate cultures. After a 24-h incubation period at 37 °C, cells were submitted to three successive washes in phosphate buffer saline (PBS) and cell viability was evaluated by two different vital dyes: • i. A first set of cell cultures was incubated in PBS containing 10% WST-1 for 30 min at 37 °C, 5% CO2. Cell viability was evaluated by the assessment of WST-1 absorbance at 450 nm in a microplate spectrophotometer. • ii. A second set of cell cultures was placed into Neutral Red medium (50 μg mL^−1 Neutral Red in complete medium) and incubated for 3 h at 37 °C, 5% CO2. Then the Neutral Red medium was removed and the distaining solution (50% ethanol, 1% acetic acid, 49% distilled water; 50 µL per well) was added into the wells. The plates were shaken for 15–20 min at room temperature in the dark. Cell viability was evaluated by the assessment of absorbance at 540 nm in a microplate spectrophotometer.
Results were expressed as percentages of cell viability about the control (culture medium-only), which corresponded to 100% cell viability. Dose-response curves were calculated by non-linear regression analysis with TableCurve 2D software (V 5.0.1) (Systat Software Inc., San Jose, CA, USA). The Inhibitory Concentration 50% (IC50) was defined as the concentration of compounds that induced a 50% decrease of viable cells.

For assay [4], the system named is Gram-positive and Gram-negative human and veterinary reference strains. Nature of the assay: MIC against the panel of Gram-positive and Gram-negative reference strains. The class given is cell-based. As to conditions: for MIC: Homo sapiens, 24 h, over several or all of the tested pathogens; for Therapeutic Ratio (TR): IC50 (CHO)/MIC, over several of the tested pathogens.
Excerpt: Typically, cytotoxicity was expressed as the half maximal inhibitory concentration (IC50), defined as the concentration of a compound that decreases cell viability by 50% relative to untreated cells. This parameter provides a quantitative measure of a compound’s toxic potential toward mammalian cells. To facilitate data interpretation, we defined the Therapeutic Ratio (TR) as the ratio of IC50 (µg/mL) to MIC (µg/mL). This dimensionless parameter provides a straightforward measure of antibacterial selectivity, allowing direct comparison of cytotoxicity and antibacterial potency. A high TR value indicates compounds with strong antibacterial activity at concentrations far below their cytotoxic threshold, whereas a TR close to unity reflects poor selectivity and limited therapeutic potential. […] Within the Claramine A series, variations in IC50 strongly impacted TR values (Figure 5).
as §1, §2

Assay [5] concerns E. coli ATCC 25922. Description: MIC, broth microdilution. The class given is cell-based, Escherichia coli. Particulars: Escherichia coli, ATCC25922, 24 h, ATCC strain. How it is done: as §1, §2
In assay [6] the test system is E. coli 1956. Nature of the assay: MIC, broth microdilution. The class given is cell-based, Escherichia coli. Particulars: Escherichia coli, 1956, 24 h. Here is the method:
as §1, §2

For assay [7], the system named is E. faecalis ATCC29212. Nature of the assay: MIC, broth microdilution. Particulars: Enterococcus faecalis, ATCC29212, 24 h, ATCC strain, read-out: MIC E. faecalis 29212. In kind it is cell-based, Enterococccus faecalis. Here is the method:
as §1, §2

The test system of assay [8] is P. aeruginosa ATCC 27853. Description: MIC, broth microdilution. The class given is cell-based, Pseudomonas aeruginosa. Particulars: Pseudomonas aeruginosa, ATCC27853, 24 h, ATCC strain. Here is the method: as §1, §2
The test system of assay [9] is P. aeruginosa 1051575. Description: MIC, broth microdilution. The class given is cell-based, Pseudomonas aeruginosa. Particulars: for MIC: Pseudomonas aeruginosa, 1051575, 24 h, 24 h. How it is done: as §1, §2
Assay [10] deals with S. intermedius 1051997. Nature of the assay: MIC, broth microdilution. The class given is cell-based, Staphylococcus intermedius. Particulars: for MIC: Staphylococcus intermedius, 1051997, 24 h, 24 h. Here is the method:
as §1, §2

For orientation: MIC means the lowest concentration that inhibits growth of the organism. The IC50 is the concentration needed to halve the response being measured.

With `COC(=O)CCC(C)C1CCC2C3CCC4CC(NCCNCCNCCNCCNCN)CCC4(C)C3CC(O)C12C` (centres unmarked) [Claramine A15], the MIC in assay [1] was 6 µg/mL (≈ 9.89 µM); in assay [2], 4 µg/mL (≈ 6.59 µM); in assay [4] (read-out: MIC), less than 15 µg/mL; in [5] it was 8 µg/mL (≈ 13.2 µM); in assay [6], 14 µg/mL (≈ 23.1 µM); in assay [7] it was 16 µg/mL (≈ 26.4 µM). Besides, the MIC turned out to be 8 µg/mL (≈ 13.2 µM) in assay [8], 8 µg/mL (≈ 13.2 µM) in assay [9] and 1 µg/mL (≈ 1.65 µM) in assay [10]. This molecule also gave an IC50 in [3] of 93 µg/mL (≈ 153 µM). Moreover, the “Therapeutic Ratio (TR)” value in assay [4] was greater than 5.
In the case of `COC(=O)CCC(C)C1CCC2C3CCC4CC(NCCCN5CCN(CCCN)CC5)CCC4(C)C3CC(O)C12C` (centres unmarked) [Claramine A18], the MIC in assay [1] was 7 µg/mL (≈ 11.9 µM); in assay [2] it was 15 µg/mL (≈ 25.5 µM); in [4] (read-out: MIC), less than 15 µg/mL; in [5], 7 µg/mL (≈ 11.9 µM); in assay [7] it was 30 µg/mL (≈ 50.9 µM); in [8] it was 15 µg/mL (≈ 25.5 µM). Also, the MIC amounted to 15 µg/mL (≈ 25.5 µM) in assay [9] and 4 µg/mL (≈ 6.79 µM) in [10]. The molecule also returned an IC50 in assay [3] of 135 µg/mL (≈ 229 µM). For the same molecule, the “Therapeutic Ratio (TR)” value in assay [4] was greater than 5.
Regarding `COC(=O)CCC(C)C1CCC2C3C(O)CC4CC(NCCCCCCN)CCC4(C)C3CC(O)C12C` (centres unmarked) [Claramine B06], the MIC in assay [1] is 3 µg/mL (≈ 5.76 µM); in assay [2], 3 µg/mL (≈ 5.76 µM); in assay [4], 0.7 to 30 µg/mL (≈ 1.34 to 57.6 µM); in assay [5], 7 µg/mL (≈ 13.4 µM); in assay [7], 7 µg/mL (≈ 13.4 µM); in assay [8] it was 13 µg/mL (≈ 25 µM). The MIC stood at 13 µg/mL (≈ 25 µM) in assay [9] and 2 µg/mL (≈ 3.84 µM) in [10]. In addition, the “IC50 CHO” value in assay [3] is 60 µg/mL (≈ 115 µM). The molecule also registered an IC50 in [3] greater than 60 µg/mL.
With `COC(=O)CCC(C)C1CCC2C3C(O)CC4CC(NCCCN5CCN(CCCN)CC5)CCC4(C)C3CC(O)C12C` (centres unmarked) [Claramine B07], the MIC in assay [1] was 8 µg/mL (≈ 13.2 µM); in [2], 4 µg/mL (≈ 6.61 µM); in assay [4], 0.7 to 30 µg/mL (≈ 1.16 to 49.6 µM); in assay [5] it was 15 µg/mL (≈ 24.8 µM); in [7] it was 8 µg/mL (≈ 13.2 µM); in [8], 30 µg/mL (≈ 49.6 µM). Besides, the MIC stood at 15 µg/mL (≈ 24.8 µM) in assay [9] and 4 µg/mL (≈ 6.61 µM) in assay [10]. Further, the “IC50 CHO” value in assay [3] is 80 µg/mL (≈ 132 µM). For the same molecule, the IC50 in assay [3] is greater than 60 µg/mL.
On to `CC(C)OC(=O)CCC(C)C1CCC2C3CCC4CC(NCCCN5CCN(CCCN)CC5)CCC4(C)C3CCC12C` (centres unmarked) [Claramine E05], for which the MIC in [1] is 8 µg/mL (≈ 13.3 µM); in assay [2], 15 µg/mL (≈ 25 µM); in [5], 15 µg/mL (≈ 25 µM); in assay [6] it was 15 µg/mL (≈ 25 µM); in [7], 30 µg/mL (≈ 49.9 µM); in [8] it was 60 µg/mL (≈ 99.8 µM). In addition, the results for the MIC in assay [9] and in [10] were 8 µg/mL (≈ 13.3 µM) and 15 µg/mL (≈ 25 µM), respectively. For the same molecule, the “IC50 CHO” value in assay [3] stood at 50 µg/mL (≈ 83.2 µM). In [3], this molecule gave an IC50 of 46 µg/mL (≈ 76.5 µM).
In the case of `COC(=O)CCC(C)C1CCC2C3CCC4CC(NCCCNCCCN)CCC4(C)C3CCC12C` (centres unmarked) [Claramine E09], in [1] (24 h), the “MIC S. aureus 340” value amounted to 0.7 µg/mL (≈ 1.39 µM). The MIC in assay [1] is 1 µg/mL (≈ 1.98 µM); in assay [2], 16 µg/mL (≈ 31.8 µM); in [4] it was 0.7 to 30 µg/mL (≈ 1.39 to 59.5 µM); in assay [5] it was 32 µg/mL (≈ 63.5 µM); in assay [6] it was 3 µg/mL (≈ 5.95 µM); in assay [7] it was 32 µg/mL (≈ 63.5 µM). Moreover, the figures for the MIC in assay [8] and in assay [10] were 32 µg/mL (≈ 63.5 µM) and 0.7 µg/mL (≈ 1.39 µM), respectively. For the same molecule, the “IC50 CHO” value in assay [3] was found to be 80 µg/mL (≈ 159 µM). The molecule further registered an IC50 in assay [3] greater than 60 µg/mL. Besides, the “Therapeutic Ratio (TR)” value is listed as greater than 10 in assay [9] (IC50 (CHO)/MIC, P. aeruginosa) and 65–114 in [10] (IC50 (CHO)/MIC, S. intermedius).
For the molecule `CC(C)OC(=O)CCC(C)C1CCC2C3CCC4CC(NCCN(CCN)CCN)CCC4(C)C3CCC12C` (centres unmarked) [Claramine E22], the MIC came to 14 µg/mL (≈ 25.6 µM) in [1]; 14 µg/mL (≈ 25.6 µM) in assay [2]; 110 µg/mL (≈ 201 µM) in assay [5]; 55 µg/mL (≈ 101 µM) in assay [6]; 55 µg/mL (≈ 101 µM) in [7]; 110 µg/mL (≈ 201 µM) in [8]. Moreover, the MIC in assay [9] is 55 µg/mL (≈ 101 µM); in assay [10] it was 7 µg/mL (≈ 12.8 µM). Further, the “IC50 CHO” value in assay [3] came out at 105 µg/mL (≈ 192 µM). The same molecule gave a half-maximal inhibitory concentration (IC50) in assay [3] of 107 µg/mL (≈ 196 µM).
